Measurements reported in patent publication US11324799B2, “Gap junction intercellular communication modulators and their use for the treatment of diabetic eye disease” (ZEALAND PHARMA A/S, priority 2017, dated 2022).

Legend:
[1] = test system: streptozotocin (STZ)-induced diabetic rats; test: Pilot study, 6 weeks of diabetes: AC and PL in retinal trypsin digests after intravitreal injection; type: in vivo, rat; conditions: n=3
Procedure: All animal studies were performed according to the ARVO Statement for the Use of Animals in Ophthalmic and Vision Research. In the pilot study to determine the optimal concentration of danegaptide, twelve Sprague-Dawley male rats, each weighing 200 g, were used. Nine of the twelve rats were injected intraperitoneally with streptozotocin (STZ) (55 mg/kg body weight) to induce diabetes for 6 weeks. The remaining 3 animals served as non-diabetic controls. After 6 weeks of diabetes, the animals were killed and retinas were isolated. In the follow-up study to determine the effect of 1000 nM danegaptide on the number of AC and PL, thirty-six Sprague-Dawley male rats, each weighing 200 g, were used. Thirty of the thirty-six rats were injected with STZ to induce diabetes for 15 weeks. The remaining six animals served as non-diabetic controls. […] Blood glucose levels were measured in each animal 2-3 times weekly and at the time of death. […]
RTDs were stained with periodic acid-Schiff and hematoxylin as described in Bobbie et al. (Reduced connexin 43 expression and its effect on the development of vascular lesions in retinas of diabetic mice. Investigative ophthalmology & visual science 2010; 51:3758-3763). Ten representative fields were imaged using a digital camera attached to a microscope and the images were analyzed for AC and PL. […]

[2] = test system: Rat retinal endothelial cells (RRECs); test: In vitro cell monolayer permeability assay; type: cell-based; conditions: HG (30 mM) medium, 100 nM
Procedure: (§1) Rat retinal endothelial cells (RRECs) were grown for 3, 5, and 7 days in normal (N; 5 mM) or HG (30 mM) medium; in parallel, cells grown in HG medium were exposed for 3, 5, and 7 days to 100 nM Danegaptide (DG), an AAP10 analogue, which stabilizes Cx43 mediated cell coupling. In addition, cells grown in N medium were treated with a Cx43 blocker (negative control) which inhibits GJ coupling, or a positive control AAP10, protecting GJIC. To determine GJIC, scrape load dye transfer (SLDT) assay was performed at the three time points. Similarly, cells were assessed for apoptosis and cell monolayer permeability by differential dye staining assay and in vitro permeability assay, respectively.

[3] = test system: Rat retinal endothelial cells (RRECs); test: Apoptosis by differential dye staining assay; type: cell-based; conditions: HG (30 mM) medium, 100 nM, 3, 5 and 7 days
Procedure: as §1

diabetic rats = test: In vivo permeability (IVP): extravasation of FITC-dextran in retinal capillaries; design: species or system rat; conditions: for vascular leakage (FIG. 3): diabetic rat retinas; for vascular leakage: 15 weeks
Procedure: To determine if improvement in Cx43-mediated gap junction intercellular communication (GJIC) prevents retinal vascular cell death and excess retinal vascular permeability, danegaptide was administered intravitreally or via osmotic pumps in rats. 60 male Sprague Dawley rats were randomly assigned into six groups, each consisting of 10 rats: non-diabetic rats, diabetic rats, diabetic rats intravitreally injected with DG (1000 nM concentration), diabetic rats intravitreally injected with sterile water as vehicle, diabetic rats treated systemically with DG (70 mg/mL to achieve 100 nM plasma DG concentration) via osmotic pumps, and diabetic rats treated systemically via osmotic pump with sterile water as control. Diabetes was induced for 15 weeks and at the end of the study all animals were examined and subsequently sacrificed and their retinas were examined for (i) in vivo permeability (IVP), (ii) RTD, and (iii) optical coherence tomography (OCT) for analyses of vascular leakage, AC and PL, and retinal thickness, respectively.
To determine the effect of improved cell-cell coupling on retinal vascular permeability under hyperglycemic stress, extravasation of FITC-dextran was assessed in the retinal capillaries following FITC-dextran tail vein injection performed shortly before animals were sacrificed.

[4] = test system: Primary retinal endothelial cells from rats; test: Transcriptomic effects in an in vitro diabetic retinopathy model; type: cell-based, rat; conditions: HG medium
Procedure: The transcriptomic effects of danegaptide in an in vitro diabetic retinopathy model were investigated to 1) reveal transcriptomic changes in diabetic-like conditions with or without danegaptide and 2) associate functional effects previously observed to transcriptomic modifications and 3) identify pathways involved in danegaptide effects on relevant cells under diabetes-like conditions. Primary retinal endothelial cells from rats were plated for in vitro experiments under four experiments conditions, Normal Glucose medium (NG), High Glucose medium (HG), High Glucose medium+Danegaptide 100 nM (HG_DG100) and High Glucose medium+Danegaptide 1000 nM (HG_DG1000). The samples were assessed at four time points (4 hours after plating, 1 day after plating, 3 days after plating and 5 days after plating).

[5] = test system: Rat retinal endothelial cells (RRECs); test: Scrape load dye transfer (SLDT) assay of GJIC; type: cell-based; conditions: HG (30 mM) medium, 100 nM, 3, 5 and 7 days
Procedure: as §1

[6] = test system: streptozotocin (STZ)-induced diabetic rats; test: Follow-up study, 15 weeks of diabetes: AC and PL in retinal trypsin digests, intravitreal or osmotic pump delivery; type: in vivo, rat; conditions: for number of PL / development of AC: diabetic rats, 15 weeks; for number of AC (FIG. 2) / number of PL (FIG. 2): diabetic rat retinas
Procedure: All animal studies were performed according to the ARVO Statement for the Use of Animals in Ophthalmic and Vision Research. In the pilot study to determine the optimal concentration of danegaptide, twelve Sprague-Dawley male rats, each weighing 200 g, were used. Nine of the twelve rats were injected intraperitoneally with streptozotocin (STZ) (55 mg/kg body weight) to induce diabetes for 6 weeks. The remaining 3 animals served as non-diabetic controls. After 6 weeks of diabetes, the animals were killed and retinas were isolated. In the follow-up study to determine the effect of 1000 nM danegaptide on the number of AC and PL, thirty-six Sprague-Dawley male rats, each weighing 200 g, were used. Thirty of the thirty-six rats were injected with STZ to induce diabetes for 15 weeks. The remaining six animals served as non-diabetic controls. After 15 weeks of diabetes, the animals were killed and retinas were isolated. The glucose concentration in blood and urine were checked after 2 or 3 days after STZ injection to confirm diabetes status in the animals. Blood glucose levels were measured in each animal 2-3 times weekly and at the time of death. The diabetic group represented rats with blood glucose levels of >350 mg/dL. The diabetic rats received NPH insulin injection as needed to maintain blood glucose levels.
The enucleated eyes were placed in 10% formalin for at least 24 hrs. The eyes were then cut in half with a razor blade, and the retinas were isolated and placed into 0.5M glycine for 24-48 hrs. RTD was performed as described in Kuwabara & Cogan (Studies of retinal vascular patterns. I. Normal architecture. Archives of ophthalmology 1960; 64:904-911). Each retina went through a series of washes with 3% trypsin, and the non-vascular mass of the retina was removed. The retinal capillary network was then isolated and mounted onto a silane-coated slide.
RTDs were stained with periodic acid-Schiff and hematoxylin as described in Bobbie et al. (Reduced connexin 43 expression and its effect on the development of vascular lesions in retinas of diabetic mice. Investigative ophthalmology & visual science 2010; 51:3758-3763). Ten representative fields were imaged using a digital camera attached to a microscope and the images were analyzed for AC and PL. Apoptotic pericytes were identified as PL based on prominent histological characteristics, including basement membrane protrusion as empty shell. Capillaries devoid of both pericytes and endothelial cells were considered as AC.
To determine the optimal concentration of danegaptide (DG), a Cx43 gap junction coupler, two concentrations (200 nM or 1000 nM) were tested via intravitreal injections in streptozotocin (STZ)-induced diabetic rats. Diabetes was induced via STZ for 6 weeks and at the end of the study, eyes were enucleated, and retinas subjected to retinal trypsin digestion (RTD) for isolation of capillary networks and stained with Hematoxylin and Periodic Acid Schiff's (PAS) reagent to analyze the number of acellular capillaries (AC) and pericyte loss (PL). Based on this pilot study, 1000 nM danegaptide was injected intravitreally in the follow-up study to determine the effect of improved cell coupling on retinal vascular cell death. Additionally, danegaptide was administered systemically using osmotic pumps. The number of rats used in this study was at least 6 per group. Overall, rats were divided into 6 groups: wild type (WT) control rats, STZ-induced diabetic rats, diabetic rats intravitreally injected with danegaptide, diabetic rats intravitreally injected with water, diabetic rats systemically delivered with danegaptide, and diabetic rats systemically delivered with water. Diabetes was induced via STZ for 15 weeks and at the end of the study, retinas were isolated and subjected to RTD for analyses of AC and PL. […]

[7] = osmotic pumps (OP) vs water via OP
[8] = intravitreal (IV) injection vs IV injection of water

NCC(=O)N1C[C@H](NC(=O)c2ccccc2)C[C@H]1C(=O)O [danegaptide, (2S,4R)-1-(2-aminoacetyl)-4-benzoylamino-pyrrolidine-2-carboxylic acid]
number of PL (pericyte loss) ([1]; intravitreal injection 1000 nM, vs untreated diabetic rat retinas): significantly reduced
number of AC (acellular capillaries) ([1]; intravitreal injection 200 or 1000 nM): decreased in the danegaptide treated groups but fell short of statistical significance
cell monolayer permeability [2]: significantly decreased by day 5
HG-induced apoptosis [3]: rescued cells from HG-induced apoptosis at all three time points
vascular leakage (FIG. 3) (diabetic rats; IV injection vs IV injection of water): significantly reduced
difference in vascular leakage between intravitreal and systemic treatment (diabetic rats; diabetic rats): no significant difference
vascular leakage (diabetic rats; intravitreal DG 1000 nM, diabetic rats): 149±22 % of control
vascular leakage (FIG. 3) (diabetic rats; [7]): significantly reduced
vascular leakage (diabetic rats; systemic DG via osmotic pump (100 nM plasma target), diabetic rats): 143±14 % of control
Fscn3 expression (downregulated in HG versus NG) [4]: reverse by danegaptide
expression of genes differentially expressed in high glucose vs normal glucose ([4]; 100 or 1000 nM, 4 h and 1 d): reverses expression of some genes
Tpcn2 expression (downregulated in HG versus NG) ([4]; 4 h): reversed by danegaptide
Cacybp expression (downregulated in HG versus NG) ([4]; 1 d): reversed by danegaptide
expression of transcripts Dnm1I, Nucb2, Trmt10a (down-regulated under HG) ([4]; day 1): generally increased the expression
GJIC (SLDT assay) [5]: preserved GJIC
number of PL ([6]; intravitreal 1000 nM): 112±62 % of control
number of AC (FIG. 2) [6, 8]: significantly reduced
number of PL (FIG. 2) [6, 8]: significantly reduced
development of AC ([6]; intravitreal injections 1000 nM): 134±28 % of control
number of AC (FIG. 2) [6, 7]: significantly reduced
number of PL (FIG. 2) [6, 7]: significantly reduced
development of AC ([6]; systemic (osmotic pump)): 133±37 % of control
number of PL ([6]; systemic (osmotic pump)): 103±65 % of control
